A melting point of 75 to 77 °C was found for `COc1cc2c(Oc3ccc4[nH]cc(C)c4c3)ncnc2cc1OCCCN1CCCC1` [Example 179, 6-methoxy-4-(3-methylindol-5-yloxy)-7-(3-(pyrrolidin-1-yl)propoxy)quinazoline] in this work. A melting point of 250 to 251 °C was found for `COc1cc2c(Oc3ccc4[nH]c(C)cc4c3)ncnc2cc1OCC1CCN(C)C(=O)C1` (stereo not shown) [Example 268, 6-methoxy-4-(2-methylindol-5-yloxy)-7-(1-methyl-2-oxopiperidin-4-ylmethoxy)quinazoline] in this work. A melting point of 80 to 82 °C was found for `COc1cc2c(Oc3cccc4[nH]ccc34)ncnc2cc1OCCCN1CCCCC1` [Example 169, 4-(indol-4-yloxy)-6-methoxy-7-(3-piperidinopropoxy)quinazoline] in this work. A melting point of 184 to 185.5 °C was found for `COc1cc2c(Oc3cnc4[nH]ccc4c3)ncnc2cc1OCCCN1CCCC1` [Example 182, 6-methoxy-7-(3-(pyrrolidin-1-yl)propoxy)-4-(1H-pyrrolo[2,3-b]pyridin-5-yloxy)quinazoline] in this work.

From US8492560B2, “Quinazoline derivatives as angiogenesis inhibitors” (AstraZeneca AB, priority 1999, dated 2013)
